According to publication PMC12261233, “Photoactivatable Cyclometalated Ir(III) Compound Penetrates the Blood-Brain Barrier in 3D Spheroidal and Advanced 3D Organoid Models of Inherently Resistant and Aggressive Brain Tumors” (ACS Pharmacology & Translational Science, 2025):
Like-named read-outs stand apart in the source and are kept apart here.

Tests used:
Format in all cases: cell-based, human
[1] = tested on: U87MG spheroids; experiment: Antiproliferative activity, 3D spheroids, CellTiter-Glo 3D assay; settings: for PI (phototoxicity index) 3D: IC50 dark / IC50 420 nm irradiated; for IC50: U87MG 3D spheroids, 90 min treatment, CellTiter-Glo 3D; for TMI (3D/2D): ratio of IC50 for 3D and 2D models under irradiation
Description: The antiproliferative activity of the compounds under investigation was assessed using the Sulforhodamine B (SRB) assay on both 2D cell monolayers and 3D spheroids. For the 2D cell monolayer assay, cells were seeded in 96-well tissue culture plates at a density of 3 × 10^3 cells/well in 100 μL of culture medium. Following overnight incubation in a humidified CO2 incubator, the medium was replaced, and the cells were treated with the investigated compounds in a final volume of 200 μL/well of Earle’s Balanced Salt Solution (EBSS). The cells were then exposed to the tested compounds for 1.5 h under dark conditions (5% CO2, 37 °C) and subsequently irradiated with blue light (420 nm) for 30 min at an intensity of 58 W/m^2. After treatment, the samples were washed with Phosphate-Buffered Saline (PBS) and replenished with 200 μL of culture medium. Following an additional 70-h incubation, the cells were washed with PBS, fixed with trichloroacetic acid at 4 °C for 1 h, and stained with 0.4% SRB dye for 30 min. The stained cells were dissolved with Tris (10 mM), and the cell viability was assessed by measuring the absorbance at 570 nm using an Absorbance Reader (SPARK TECAN, SCHOELLER). The absorbance readings were then converted to the percentage of control (% cell survival), and the antiproliferative effects were expressed as IC50 values, which were calculated from curves plotting cell survival (%) versus drug concentration (μM) (IC50 = the concentration of the agent that inhibits cell growth by 50%). For experiments with 3D spheroids, 2500 single cells/well were seeded on ultralow attachment U-shape 96-well plates (Corning, USA) and cultured for 72 h in 3D forming medium DMEM-F12 ham medium supplemented with growth and spheroid forming factors: 2% B27 (Thermo Fisher Scientific Inc., MA, USA), epidermal growth factor (EGF; Sigma-Aldrich, Germany, 20 ng mL^–1), fibroblast growth factor (FGF2; Sigma-Aldrich, Germany, 10 ng mL^–1), and BSA (0.15%). After the 72-h spheroid formation period, the samples were treated and irradiated as described for the 2D cultures. Subsequently, the samples were cultured in the 3D forming medium for an additional 70 h, and the antiproliferative potency of the tested compounds against spheroids was determined by assessing changes in IC50 values using the CellTiterGlo-3D assay (Promega). The luminescence signal was detected using the plate reader SPARK (Tecan, Manedorf, Switzerland), and the IC50 values were calculated from the survival curves. All experiments were conducted in triplicate to ensure the reliability and reproducibility of the results. Furthermore, the concentrations of the compounds in the medium during the treatment were verified using Flame Atomic Absorption Spectroscopy (FAAS) or Inductively Coupled Plasma Mass Spectrometry (ICP-MS).
The antiproliferative activity (IC50 valuesa) of the investigated compounds determined in 2D and 3D models of U87MG cellsb
Dark Irradiated PId Dark Irradiated PIe (3D/2D) […]
a Concentration that causes 50% inhibition of cell proliferation. b Cell monolayer or generated 3D spheroids were treated for 90 min with increasing concentrations of the investigated compounds, followed by 30 min of irradiation with blue light (420 nm; 58 Wm-2) and 70 h of drug-free incubation. c IC50 values were determined by SRB assay. d IC50 values were determined by CellTiter-Glo® 3D chemiluminescent assay. e PI - phototoxicity index was calculated as the ratio of IC50 determined under the dark conditions / IC50 determined for 420 […]
f TMI – tissue-mass index was calculated as the ratio of IC50 values determined for 3D and 2D models under irradiation conditions.

[2] = tested on: U87MG cells; experiment: Antiproliferative activity, 2D monolayer, SRB assay; settings: for PI (phototoxicity index) 2D: IC50 dark / IC50 420 nm irradiated; for IC50: U87MG 2D monolayer, 90 min treatment, SRB
Description: The antiproliferative activity of the compounds under investigation was assessed using the Sulforhodamine B (SRB) assay on both 2D cell monolayers and 3D spheroids. For the 2D cell monolayer assay, cells were seeded in 96-well tissue culture plates at a density of 3 × 10^3 cells/well in 100 μL of culture medium. Following overnight incubation in a humidified CO2 incubator, the medium was replaced, and the cells were treated with the investigated compounds in a final volume of 200 μL/well of Earle’s Balanced Salt Solution (EBSS). The cells were then exposed to the tested compounds for 1.5 h under dark conditions (5% CO2, 37 °C) and subsequently irradiated with blue light (420 nm) for 30 min at an intensity of 58 W/m^2. After treatment, the samples were washed with Phosphate-Buffered Saline (PBS) and replenished with 200 μL of culture medium. Following an additional 70-h incubation, the cells were washed with PBS, fixed with trichloroacetic acid at 4 °C for 1 h, and stained with 0.4% SRB dye for 30 min. The stained cells were dissolved with Tris (10 mM), and the cell viability was assessed by measuring the absorbance at 570 nm using an Absorbance Reader (SPARK TECAN, SCHOELLER). […] After the 72-h spheroid formation period, the samples were treated and irradiated as described for the 2D cultures. […] The luminescence signal was detected using the plate reader SPARK (Tecan, Manedorf, Switzerland), and the IC50 values were calculated from the survival curves. All experiments were conducted in triplicate to ensure the reliability and reproducibility of the results. Furthermore, the concentrations of the compounds in the medium during the treatment were verified using Flame Atomic Absorption Spectroscopy (FAAS) or Inductively Coupled Plasma Mass Spectrometry (ICP-MS). […]
drug-free incubation. c IC50 values were determined by SRB assay. d IC50 values were determined by CellTiter-Glo® 3D chemiluminescent assay. e PI - phototoxicity index was calculated as the ratio of IC50 determined under the dark conditions / IC50 determined for 420 […]
models under irradiation conditions.

[3] = tested on: U87MG spheroids; experiment: Distribution of iridium compounds in Matrigel-embedded spheroids (confocal); settings: 5 μM, 3 h
Description: Spheroids derived from U87MG cells were encapsulated in a Matrigel matrix. The U87MG cells were incubated for 72 h under 3D conditions using ULA 96-well U-shaped plates (Corning) and cultured in DMEM-F12 ham medium supplemented with growth factors conducive to spheroid formation: 2% B27 (Thermo Fisher Scientific Inc., MA, USA), epidermal growth factor (EGF; Sigma-Aldrich, Germany, 20 ng mL^–1), fibroblast growth factor (FGF2; Sigma-Aldrich, Germany, 10 ng mL^–1), and BSA (0.15%). Following the 72-h spheroid formation phase, the samples were embedded in a Matrigel matrix and allowed to gel completely (30 min). Afterward, the spheroids were further cultured for 24 h in confocal Petri dishes (Mattek) with 3D forming medium. Subsequently, the samples were exposed to 5 μM of the tested compounds 3, 4, and 5 for 3 h. The samples were then rinsed, transferred to a fresh 3D forming medium, and visualized using a confocal microscope (Leica CM SP8 SMD, Leica, Germany). Imaging was conducted in defined Z-stacks with a 20 μm step, and fluorescence intensities were captured and analyzed using ImageJ software.

[4] = dark, 70 h drug-free, read-out: IC50 3D Dark
[5] = 30 min blue light 420 nm 58 W m-2, 70 h drug-free, read-out: IC50 3D Irradiated
[6] = dark, 70 h drug-free incubation, read-out: IC50 2D Dark
[7] = 30 min blue light 420 nm 58 W m-2, 70 h drug-free, read-out: IC50 2D Irradiated

SMILES | PI (phototoxicity index) 3D [1] | IC50 [1, 4] | IC50 [1, 5] | TMI (3D/2D) [1] | PI (phototoxicity index) 2D [2] | IC50 [2, 6] | IC50 [2, 7] | distribution within spheroid [3] | IC50 ([1]; Homo sapiens, U-87 MG, light or radiation study, 30 min blue light 420 nm 58 W m-2, 70 h drug-free, read-out: IC50 3D Irradiated) | IC50 ([1]; Homo sapiens, U-87 MG, dark, 70 h drug-free, read-out: IC50 3D Dark) | IC50 ([2]; Homo sapiens, U-87 MG, dark, 70 h drug-free incubation, read-out: IC50 2D Dark)
Cc1ccc(-c2cc3[n+]4c(c2)-c2cccc[n+]2[Ir-3]42([Cl])([c]4cc5ccccc5cc4-c4n(Cc5ccc(C(F)(F)F)cc5)c5ccccc5[n+]42)[n+]2ccccc2-3)cc1.F[P-](F)(F)(F)(F)F [Ir3] | 6.1 | 36.6 ± 4.5 µM | 6 ± 1 µM | 9.0 | 45 | 30.4 ± 4.3 µM | 0.67 ± 0.08 µM | primarily localized in the outer regions of the spheroids | – | – | –
CCCCn1c2[n+](c3cc(C(=O)OC)ccc31)[Ir-3]13([Cl])([c]4ccccc4-2)[n+]2ccccc2-c2cc(-c4ccc(C)cc4)cc([n+]21)-c1cccc[n+]13.F[P-](F)(F)(F)(F)F [Ir4] | 13.1 | 27.6 ± 4 µM | 2.1 ± 0.2 µM | 4 | 41 | 21.3 ± 1.4 µM | 0.52 ± 0.08 µM | most uniform distribution | – | – | –
Cc1ccc(-c2cc3[n+]4c(c2)-c2cccc[n+]2[Ir-3]42([Cl])([c]4c(ccc5c4OCO5)-c4n(Cc5ccc(C(F)(F)F)cc5)c5ccccc5[n+]42)[n+]2ccccc2-3)cc1.F[P-](F)(F)(F)(F)F [Ir5] | 4.5 | 32.3 ± 3.3 µM | 7.1 ± 0.8 µM | 16.9 | 60 | 25.3 ± 2.1 µM | 0.42 ± 0.03 µM | primarily localized in the outer regions of the spheroids | – | – | –
Cn1nnc2c(C(N)=O)ncn2c1=O [Temozolomide, reference compound] | – | – | – | – | – | – | – | – | 95.3 ± 6.4 µM | ≥ 100 µM | ≥ 100 µM
